Test results published in patent US12077537B2 (Gilead Sciences, Inc., priority 2020, dated 2024).

The molecules below were run on HIV-IIIb (assay: Antiviral assay in MT4 cells). Details: Human immunodeficiency virus 1, MT4, 120 h; MT-4 cells mixed with HIV-IIIb at m.o.i. 0.003; 5 days at 37° C.; CellTiter-Glo luminescence; 50% decrease in signal, a measure of HIV-1 replication.
Type: cell-based
In short: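 Compound, tested at ten 3-fold dilutions in quadruplicate in 10% FBS medium, received MT-4 cells pre-mixed 1 hour with HIV-IIIb (m.o.i. 0.003). Protection was read as luminescent cell viability (CellTiter-Glo) after 5 days' culture at 37° C.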

| Structure (SMILES) | EC50 [nM] |
| --- | --- |
| Cn1nc(NS(C)(=O)=O)c2cccc(-c3cc4scnc4nc3C(Cc3cc(F)cc(F)c3)NC(=O)Cn3nc(C(F)(F)F)c4c3C(F)(F)[C@@H]3C[C@H]43)c21 (stereo partly drawn) [Compound 129, 2-((3bS,4aR)-5,5-difluoro-3-(trifluoromethyl)-3b,4,4a,5-tetrahydro-1H-cyclopropa[3,4]cyclopenta[1,2-c]pyrazol-1-yl)-N-(2-(3,5-difluorophenyl)-1-(6-(1-methyl-3-(methylsulfonamido)-1H-indazol-7-yl)thiazolo[4,5-b]pyridin-5-yl)ethyl)acetamide] | 16.9 |
| Cc1nc2nc(C(Cc3cc(F)cc(F)c3)NC(=O)Cn3nc(C(F)(F)F)c4c3C(F)(F)[C@@H]3C[C@H]43)c(-c3cccc4c(NS(C)(=O)=O)nn(C)c34)cc2s1 (stereo partly drawn) [Compound 130, 2-((3bS,4aR)-5,5-difluoro-3-(trifluoromethyl)-3b,4,4a,5-tetrahydro-1H-cyclopropa[3,4]cyclopenta[1,2-c]pyrazol-1-yl)-N-(2-(3,5-difluorophenyl)-1-(2-methyl-6-(1-methyl-3-(methylsulfonamido)-1H-indazol-7-yl)thiazolo[4,5-b]pyridin-5-yl)ethyl)acetamide] | 6 |
| Cn1nc(NS(C)(=O)=O)c2cccc(-c3cc4sc(C#N)nc4nc3C(Cc3cc(F)cc(F)c3)NC(=O)Cn3nc(C(F)(F)F)c4c3C(F)(F)[C@@H]3C[C@H]43)c21 (stereo partly drawn) [Compound 131, N-(1-(2-cyano-6-(1-methyl-3-(methylsulfonamido)-1H-indazol-7-yl)thiazolo[4,5-b]pyridin-5-yl)-2-(3,5-difluorophenyl)ethyl)-2-((3bS,4aR)-5,5-difluoro-3-(trifluoromethyl)-3b,4,4a,5-tetrahydro-1H-cyclopropa[3,4]cyclopenta[1,2-c]pyrazol-1-yl)acetamide] | 28.1 |
| Cn1nc(NS(C)(=O)=O)c2cccc(-c3cc4sc(-c5cn[nH]c5)nc4nc3C(Cc3cc(F)cc(F)c3)NC(=O)Cn3nc(C(F)(F)F)c4c3C(F)(F)[C@@H]3C[C@H]43)c21 (stereo partly drawn) [Compound 132, 2-((3bS,4aR)-5,5-difluoro-3-(trifluoromethyl)-3b,4,4a,5-tetrahydro-1H-cyclopropa[3,4]cyclopenta[1,2-c]pyrazol-1-yl)-N-(2-(3,5-difluorophenyl)-1-(6-(1-methyl-3-(methylsulfonamido)-1H-indazol-7-yl)-2-(1H-pyrazol-4-yl)thiazolo[4,5-b]pyridin-5-yl)ethyl)acetamide] | 43.7 |
| Cn1nc(NS(C)(=O)=O)c2cccc(-c3cc4sc(-c5c[nH]cn5)nc4nc3C(Cc3cc(F)cc(F)c3)NC(=O)Cn3nc(C(F)(F)F)c4c3C(F)(F)[C@@H]3C[C@H]43)c21 (stereo partly drawn) [Compound 133, N-(1-(2-(1H-imidazol-4-yl)-6-(1-methyl-3-(methylsulfonamido)-1H-indazol-7-yl)thiazolo[4,5-b]pyridin-5-yl)-2-(3,5-difluorophenyl)ethyl)-2-((3bS,4aR)-5,5-difluoro-3-(trifluoromethyl)-3b,4,4a,5-tetrahydro-1H-cyclopropa[3,4]cyclopenta[1,2-c]pyrazol-1-yl)acetamide] | 43.3 |
| Cn1cnc(-c2nc3nc(C(Cc4cc(F)cc(F)c4)NC(=O)Cn4nc(C(F)(F)F)c5c4C(F)(F)[C@@H]4C[C@H]54)c(-c4cccc5c(NS(C)(=O)=O)nn(C)c45)cc3s2)c1 (stereo partly drawn) [Compound 134, 2-((3bS,4aR)-5,5-difluoro-3-(trifluoromethyl)-3b,4,4a,5-tetrahydro-1H-cyclopropa[3,4]cyclopenta[1,2-c]pyrazol-1-yl)-N-(2-(3,5-difluorophenyl)-1-(2-(1-methyl-1H-imidazol-4-yl)-6-(1-methyl-3-(methylsulfonamido)-1H-indazol-7-yl)thiazolo[4,5-b]pyridin-5-yl)ethyl)acetamide] | 10.2 |
| Cn1nc(NS(C)(=O)=O)c2c(Cl)ccc(-c3cc4[nH]c(=O)ccc4nc3C(Cc3cc(F)cc(F)c3)NC(=O)Cn3nc(C(F)F)c4c3C(F)(F)[C@@H]3C[C@H]43)c21 (stereo partly drawn) [Compound 135, N-(1-(3-(4-chloro-1-methyl-3-(methylsulfonamido)-1H-indazol-7-yl)-6-oxo-5,6-dihydro-1,5-naphthyridin-2-yl)-2-(3,5-difluorophenyl)ethyl)-2-((3bS,4aR)-3-(difluoromethyl)-5,5-difluoro-3b,4,4a,5-tetrahydro-1H-cyclopropa[3,4]cyclopenta[1,2-c]pyrazol-1-yl)acetamide] | 18 |
| Cn1nc(NS(C)(=O)=O)c2c(Cl)ccc(-c3cc4c(nc3[C@H](Cc3cc(F)cc(F)c3)NC(=O)Cn3nc(C(F)F)c5c3C(F)(F)[C@@H]3C[C@H]53)CCC(=O)N4)c21 [Compound 136, N—((S)-1-(3-(4-chloro-1-methyl-3-(methylsulfonamido)-1H-indazol-7-yl)-6-oxo-5,6,7,8-tetrahydro-1,5-naphthyridin-2-yl)-2-(3,5-difluorophenyl)ethyl)-2-((3bS,4aR)-3-(difluoromethyl)-5,5-difluoro-3b,4,4a,5-tetrahydro-1H-cyclopropa[3,4]cyclopenta[1,2-c]pyrazol-1-yl)acetamide] | 4.3 |
| CC(C)(C)OC(=O)N1CCC[C@H]1c1nc(-c2ccc(C#Cc3nc4nc([C@H](Cc5cc(F)cc(F)c5)NC(=O)Cn5nc(C(F)F)c6c5C(F)(F)CCC6(F)F)c(-c5ccc(F)c(C(N)=O)c5)cc4s3)cc2)c[nH]1 [Compound 137, tert-butyl (S)-2-(4-(4-((6-(3-carbamoyl-4-fluorophenyl)-5-((S)-1-(2-(3-(difluoromethyl)-4,4,7,7-tetrafluoro-4,5,6,7-tetrahydro-1H-indazol-1-yl)acetamido)-2-(3,5-difluorophenyl)ethyl)thiazolo[4,5-b]pyridin-2-yl)ethynyl)phenyl)-1H-imidazol-2-yl)pyrrolidine-1-carboxylate] | 409 |
| NC(=O)c1cc(-c2cc3sc(C#Cc4ccc(-c5c[nH]c([C@@H]6CCCN6)n5)cc4)nc3nc2[C@H](Cc2cc(F)cc(F)c2)NC(=O)Cn2nc(C(F)F)c3c2C(F)(F)CCC3(F)F)ccc1F [Compound 138, 5-(5-((S)-1-(2-(3-(difluoromethyl)-4,4,7,7-tetrafluoro-4,5,6,7-tetrahydro-1H-indazol-1-yl)acetamido)-2-(3,5-difluorophenyl)ethyl)-2-((4-(2-((S)-pyrrolidin-2-yl)-1H-imidazol-4-yl)phenyl)ethynyl)thiazolo[4,5-b]pyridin-6-yl)-2-fluorobenzamide] | 112 |
| NC(=O)c1cc(-c2cc3sc(N4CCN(c5ccc6c(c5)OCCO6)CC4)nc3nc2[C@H](Cc2cc(F)cc(F)c2)NC(=O)Cn2nc(C(F)F)c3c2C(F)(F)CCC3(F)F)ccc1F [Compound 139, (S)-5-(5-(1-(2-(3-(difluoromethyl)-4,4,7,7-tetrafluoro-4,5,6,7-tetrahydro-1H-indazol-1-yl)acetamido)-2-(3,5-difluorophenyl)ethyl)-2-(4-(2,3-dihydrobenzo[b][1,4]dioxin-6-yl)piperazin-1-yl)thiazolo[4,5-b]pyridin-6-yl)-2-fluorobenzamide] | 545 |
| NC(=O)c1cc(-c2cc3sc(N4CCN(c5ccc(Cl)cc5)CC4)nc3nc2[C@H](Cc2cc(F)cc(F)c2)NC(=O)Cn2nc(C(F)(F)F)c3c2C(F)(F)[C@@H]2C[C@H]32)ccc1F [Compound 140, 5-(2-(4-(4-chlorophenyl)piperazin-1-yl)-5-((S)-1-(2-((3bS,4aR)-5,5-difluoro-3-(trifluoromethyl)-3b,4,4a,5-tetrahydro-1H-cyclopropa[3,4]cyclopenta[1,2-c]pyrazol-1-yl)acetamido)-2-(3,5-difluorophenyl)ethyl)thiazolo[4,5-b]pyridin-6-yl)-2-fluorobenzamide] | 1370 |
